# In ChEMBL document CHEMBL1201862, “PubChem BioAssay data set” (2004):
# Active and inactive are the calls of the source.
# Tests used:
# [1] = biological target: T1, Bcl-2-related protein A1 (Mus musculus, UniProt Q07440); assay: Bfl-1 binding inhibitors, SAR follow-up, biochemical, fluorescence polarization (AID 1070)
# T1 sequence (Q07440 whole entry): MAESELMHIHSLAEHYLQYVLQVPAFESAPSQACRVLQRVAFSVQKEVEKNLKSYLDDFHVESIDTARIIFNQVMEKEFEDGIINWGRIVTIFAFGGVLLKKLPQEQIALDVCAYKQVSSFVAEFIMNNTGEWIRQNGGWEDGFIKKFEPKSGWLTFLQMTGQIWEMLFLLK
# [2] = biological target: Tumor necrosis factor (Homo sapiens, UniProt P01375); assay: analog potency on TNFa NF-kB signaling – cell-based, set 3, SAR follow-up (AID 2801); assay type: functional
# [3] = biological target: Nucleotide-binding oligomerization domain-containing protein 2 (Homo sapiens, UniProt Q9HC29); assay: inhibition of MDP-driven NOD2 NF-kB reporter – cell-based, set 3, SAR follow-up (AID 2799); assay type: functional
# [4] = system: HEK293; assay: SAR analysis of compounds that are cytotoxic to HEK293 - Set 3. [Related pubchem assays (depositor defined):AID1575, AID1578, AID1848, AID1849, AID2001, AID2333, AID2334, AID2335, AID2337, AID2469]; assay type: functional, cell-based; settings: Homo sapiens
# [5] = biological target: Glyceraldehyde-3-phosphate dehydrogenase (Homo sapiens, UniProt P04406)
# Glyceraldehyde-3-phosphate dehydrogenase, sequence (P04406 whole entry): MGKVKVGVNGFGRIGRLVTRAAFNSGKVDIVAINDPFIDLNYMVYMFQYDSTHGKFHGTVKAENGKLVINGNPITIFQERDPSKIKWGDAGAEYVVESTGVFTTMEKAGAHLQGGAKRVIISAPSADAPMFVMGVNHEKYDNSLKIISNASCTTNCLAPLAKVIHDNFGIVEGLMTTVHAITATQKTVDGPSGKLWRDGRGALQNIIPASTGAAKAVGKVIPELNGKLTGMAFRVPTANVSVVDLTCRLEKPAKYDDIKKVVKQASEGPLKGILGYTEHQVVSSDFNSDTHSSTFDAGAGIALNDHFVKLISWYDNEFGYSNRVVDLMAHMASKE
# [6] = biological target: T1, Bcl-2-related protein A1; assay: small-molecule antagonists of Bfl-1/BH3 interaction – biochemical, TR-FRET, mouse Bfl-1, confirmation (AID 621);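 further: TR-FRET binding of GST-Bfl-1 to FITC-labelled Bid peptide via terbium antibody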
# [7] = biological target: Nucleotide-binding oligomerization domain-containing protein 1 (Homo sapiens, UniProt Q9Y239); assay: SAR analysis of compounds that inhibit NOD1 - Set 3. [Related pubchem assays (depositor defined):AID1566, AID1575, AID1578, AID1849, AID1852, AID2333, AID2335, AID2466]; assay type: functional
# [8] = biological target: CAAX prenyl protease 2 (Saccharomyces cerevisiae S288c, UniProt Q03530); assay type: biochemical
# [9] = toxicity toward cultured mammalian cells – cell-based, plate reader, cherry-pick samples, cytotoxicity control, dose response (AID 504397); assay type: functional
# [10] = biological target: T2, Voltage-gated N-type calcium channel alpha-1B subunit/Amyloid beta A4 precursor protein-binding family A member 1 (Homo sapiens, UniProt Q00975+Q02410); assay type: protein assay
# T2 sequence (Q00975 whole entry): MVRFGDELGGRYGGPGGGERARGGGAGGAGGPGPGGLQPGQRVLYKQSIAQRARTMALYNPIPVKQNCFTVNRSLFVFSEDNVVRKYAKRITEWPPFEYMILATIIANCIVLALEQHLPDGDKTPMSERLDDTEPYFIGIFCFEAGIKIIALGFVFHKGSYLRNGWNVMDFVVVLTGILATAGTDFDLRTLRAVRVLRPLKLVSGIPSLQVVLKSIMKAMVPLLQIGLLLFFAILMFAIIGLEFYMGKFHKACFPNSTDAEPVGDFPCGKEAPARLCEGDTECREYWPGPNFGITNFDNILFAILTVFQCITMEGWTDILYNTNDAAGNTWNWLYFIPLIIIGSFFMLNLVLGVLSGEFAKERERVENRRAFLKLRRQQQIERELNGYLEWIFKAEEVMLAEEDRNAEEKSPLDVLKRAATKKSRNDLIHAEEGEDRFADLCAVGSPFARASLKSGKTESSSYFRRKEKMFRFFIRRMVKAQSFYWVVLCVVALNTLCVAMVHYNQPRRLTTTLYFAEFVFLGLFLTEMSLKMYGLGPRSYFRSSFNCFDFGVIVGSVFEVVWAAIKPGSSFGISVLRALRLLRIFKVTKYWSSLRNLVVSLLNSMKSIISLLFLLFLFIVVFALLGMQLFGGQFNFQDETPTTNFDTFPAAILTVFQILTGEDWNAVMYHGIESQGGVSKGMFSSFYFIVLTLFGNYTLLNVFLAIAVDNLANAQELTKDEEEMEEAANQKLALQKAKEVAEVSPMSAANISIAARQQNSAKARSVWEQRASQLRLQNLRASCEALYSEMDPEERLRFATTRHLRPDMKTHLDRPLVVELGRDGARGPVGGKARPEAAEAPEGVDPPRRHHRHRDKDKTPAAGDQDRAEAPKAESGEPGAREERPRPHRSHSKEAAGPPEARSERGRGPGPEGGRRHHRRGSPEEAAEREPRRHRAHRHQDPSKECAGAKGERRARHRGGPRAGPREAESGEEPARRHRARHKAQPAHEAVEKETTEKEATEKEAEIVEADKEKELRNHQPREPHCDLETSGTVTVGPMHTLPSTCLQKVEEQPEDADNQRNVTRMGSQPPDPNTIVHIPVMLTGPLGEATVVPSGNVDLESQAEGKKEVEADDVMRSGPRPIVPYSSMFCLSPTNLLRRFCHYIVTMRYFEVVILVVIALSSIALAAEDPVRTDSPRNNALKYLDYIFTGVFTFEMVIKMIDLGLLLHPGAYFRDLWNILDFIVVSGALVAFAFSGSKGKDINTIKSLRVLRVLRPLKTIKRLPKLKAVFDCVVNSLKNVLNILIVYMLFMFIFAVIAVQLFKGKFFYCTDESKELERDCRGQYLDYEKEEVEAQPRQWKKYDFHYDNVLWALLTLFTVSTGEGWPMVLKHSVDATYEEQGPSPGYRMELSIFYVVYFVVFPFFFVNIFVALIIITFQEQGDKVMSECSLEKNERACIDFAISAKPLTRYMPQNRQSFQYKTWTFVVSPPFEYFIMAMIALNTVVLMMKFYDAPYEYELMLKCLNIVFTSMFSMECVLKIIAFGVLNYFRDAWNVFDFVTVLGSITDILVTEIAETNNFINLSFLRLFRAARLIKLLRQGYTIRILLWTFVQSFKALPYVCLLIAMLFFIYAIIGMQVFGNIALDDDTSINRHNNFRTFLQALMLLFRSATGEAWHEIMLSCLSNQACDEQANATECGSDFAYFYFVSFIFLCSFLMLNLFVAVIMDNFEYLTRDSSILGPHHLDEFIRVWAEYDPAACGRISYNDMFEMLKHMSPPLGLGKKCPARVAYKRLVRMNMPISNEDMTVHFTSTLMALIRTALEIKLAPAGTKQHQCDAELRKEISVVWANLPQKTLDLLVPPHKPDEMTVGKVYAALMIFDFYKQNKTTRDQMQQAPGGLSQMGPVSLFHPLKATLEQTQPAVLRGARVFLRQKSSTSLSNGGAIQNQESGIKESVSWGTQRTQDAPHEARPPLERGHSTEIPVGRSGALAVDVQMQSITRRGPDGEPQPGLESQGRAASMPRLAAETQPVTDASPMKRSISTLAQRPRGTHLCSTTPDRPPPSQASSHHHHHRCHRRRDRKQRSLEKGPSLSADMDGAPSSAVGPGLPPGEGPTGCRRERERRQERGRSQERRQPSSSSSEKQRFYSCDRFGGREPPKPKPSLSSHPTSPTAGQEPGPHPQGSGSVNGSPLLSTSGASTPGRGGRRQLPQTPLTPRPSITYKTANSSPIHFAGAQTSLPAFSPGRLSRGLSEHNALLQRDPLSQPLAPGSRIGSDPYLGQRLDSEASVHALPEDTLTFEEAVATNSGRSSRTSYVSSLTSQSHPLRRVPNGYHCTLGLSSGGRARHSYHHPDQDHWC
# T2 sequence (Q02410 whole entry): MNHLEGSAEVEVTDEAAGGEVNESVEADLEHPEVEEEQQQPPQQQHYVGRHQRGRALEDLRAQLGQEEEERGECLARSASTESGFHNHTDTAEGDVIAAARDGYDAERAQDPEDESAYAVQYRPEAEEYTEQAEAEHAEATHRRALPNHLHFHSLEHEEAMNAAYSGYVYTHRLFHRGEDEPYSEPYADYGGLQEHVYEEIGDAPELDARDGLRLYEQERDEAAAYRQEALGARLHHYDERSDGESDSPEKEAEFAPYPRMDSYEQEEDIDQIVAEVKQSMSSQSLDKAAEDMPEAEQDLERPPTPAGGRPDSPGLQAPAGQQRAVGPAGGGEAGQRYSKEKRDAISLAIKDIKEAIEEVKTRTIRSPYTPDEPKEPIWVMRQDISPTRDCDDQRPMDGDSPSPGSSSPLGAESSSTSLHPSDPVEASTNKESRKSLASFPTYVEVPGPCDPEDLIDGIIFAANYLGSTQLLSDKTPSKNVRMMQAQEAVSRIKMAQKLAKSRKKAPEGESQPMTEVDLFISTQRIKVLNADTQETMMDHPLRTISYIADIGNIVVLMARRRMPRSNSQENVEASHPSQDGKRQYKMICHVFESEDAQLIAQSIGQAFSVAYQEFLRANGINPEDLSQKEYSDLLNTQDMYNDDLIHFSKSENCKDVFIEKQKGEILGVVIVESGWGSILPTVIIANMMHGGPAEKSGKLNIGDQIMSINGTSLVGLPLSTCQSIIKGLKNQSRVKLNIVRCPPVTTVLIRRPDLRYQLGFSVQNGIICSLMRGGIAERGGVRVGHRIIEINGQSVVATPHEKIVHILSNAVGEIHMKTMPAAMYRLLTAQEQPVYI
# [11] = biological target: T3, Hexokinase HKDC1 (Homo sapiens, UniProt Q2TB90); assay: activation of HKDC1 glucose phosphorylation – biochemical, W721R variant, dose response (AID 504730); assay type: functional
# T3 sequence (Q2TB90 whole entry): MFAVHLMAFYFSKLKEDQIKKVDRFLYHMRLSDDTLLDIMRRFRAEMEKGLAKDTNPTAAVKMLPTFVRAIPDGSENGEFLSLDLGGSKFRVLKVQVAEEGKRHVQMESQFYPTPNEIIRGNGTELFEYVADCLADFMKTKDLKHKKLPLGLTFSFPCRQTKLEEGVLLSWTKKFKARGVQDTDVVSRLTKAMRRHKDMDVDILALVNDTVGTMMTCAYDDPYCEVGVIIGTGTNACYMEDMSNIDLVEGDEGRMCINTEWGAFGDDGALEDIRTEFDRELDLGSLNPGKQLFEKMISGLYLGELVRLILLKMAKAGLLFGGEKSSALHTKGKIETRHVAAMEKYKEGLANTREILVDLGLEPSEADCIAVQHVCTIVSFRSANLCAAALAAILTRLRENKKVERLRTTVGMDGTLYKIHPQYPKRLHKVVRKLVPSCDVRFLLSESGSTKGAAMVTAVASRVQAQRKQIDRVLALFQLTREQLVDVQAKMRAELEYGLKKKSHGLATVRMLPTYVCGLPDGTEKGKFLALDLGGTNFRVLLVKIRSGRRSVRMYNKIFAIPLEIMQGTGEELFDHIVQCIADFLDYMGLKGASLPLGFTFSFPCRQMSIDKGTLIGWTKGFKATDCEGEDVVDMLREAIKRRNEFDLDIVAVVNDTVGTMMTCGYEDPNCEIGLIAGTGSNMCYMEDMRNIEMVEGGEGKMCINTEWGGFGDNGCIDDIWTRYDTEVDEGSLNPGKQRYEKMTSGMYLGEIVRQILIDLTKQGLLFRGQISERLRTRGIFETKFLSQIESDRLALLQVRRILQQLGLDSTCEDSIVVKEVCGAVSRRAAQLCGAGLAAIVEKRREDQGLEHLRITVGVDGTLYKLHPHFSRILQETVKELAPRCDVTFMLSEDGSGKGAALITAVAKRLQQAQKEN
# [12] = biological target: T2, Voltage-gated N-type calcium channel alpha-1B subunit/Amyloid beta A4 precursor protein-binding family A member 1; assay type: protein assay; remark: listed apart in the source
# [13] = biological target: T4, SUMO-activating enzyme (Homo sapiens, UniProt Q9UBT2); assay: blockers of UBC9-mediated SUMO conjugation – biochemical, AlphaScreen, SUMOylation inhibitor project, confirmation (AID 2018); assay type: functional
# T4 sequence (Q9UBE0 whole entry): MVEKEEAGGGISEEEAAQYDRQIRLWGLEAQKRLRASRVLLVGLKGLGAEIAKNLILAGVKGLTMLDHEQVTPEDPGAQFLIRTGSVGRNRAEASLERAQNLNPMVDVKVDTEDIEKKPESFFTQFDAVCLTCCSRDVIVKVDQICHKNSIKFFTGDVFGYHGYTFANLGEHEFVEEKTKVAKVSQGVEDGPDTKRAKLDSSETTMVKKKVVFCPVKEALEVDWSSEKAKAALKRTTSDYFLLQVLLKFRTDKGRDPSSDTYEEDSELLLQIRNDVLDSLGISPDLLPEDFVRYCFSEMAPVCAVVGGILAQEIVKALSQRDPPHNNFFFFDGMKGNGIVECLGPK
# T4 sequence (Q9UBT2 whole entry): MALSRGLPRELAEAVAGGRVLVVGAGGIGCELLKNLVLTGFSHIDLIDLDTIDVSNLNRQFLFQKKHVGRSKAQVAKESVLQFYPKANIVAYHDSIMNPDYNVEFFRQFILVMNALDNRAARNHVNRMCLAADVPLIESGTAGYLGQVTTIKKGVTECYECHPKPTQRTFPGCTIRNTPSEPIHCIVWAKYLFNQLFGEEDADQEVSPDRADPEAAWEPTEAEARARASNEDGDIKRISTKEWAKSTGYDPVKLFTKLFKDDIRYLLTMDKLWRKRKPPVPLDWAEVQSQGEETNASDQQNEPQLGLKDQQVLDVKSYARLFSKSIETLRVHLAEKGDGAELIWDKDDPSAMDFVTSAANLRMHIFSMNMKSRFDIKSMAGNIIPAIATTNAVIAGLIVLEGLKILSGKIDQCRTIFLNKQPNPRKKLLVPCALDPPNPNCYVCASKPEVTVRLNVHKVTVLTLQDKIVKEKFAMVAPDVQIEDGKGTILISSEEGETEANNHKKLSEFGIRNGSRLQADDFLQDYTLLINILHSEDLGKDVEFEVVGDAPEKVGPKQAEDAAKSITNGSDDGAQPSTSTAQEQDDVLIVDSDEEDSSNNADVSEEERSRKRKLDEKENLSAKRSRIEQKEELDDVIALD
# [14] = biological target: T4, SUMO-activating enzyme; assay: blockers of SAE1/SAE2–UBC9 SUMO transfer – biochemical, HTRF, uHTS, primary screen (AID 2006); assay type: protein-complex assay
# [15] = biological target: T5, Mucolipin-3 (Homo sapiens, UniProt Q8TDD5); assay: Fluorescence counterscreen assay for […] agonists: dose response cell-based high-throughput screening assay to identify agonists of the transient receptor potential channel ML3 (TRPML3). [Related pubchem assays: 1424, 1448 ]; assay type: functional
# T5 sequence (Q8TDD5 whole entry): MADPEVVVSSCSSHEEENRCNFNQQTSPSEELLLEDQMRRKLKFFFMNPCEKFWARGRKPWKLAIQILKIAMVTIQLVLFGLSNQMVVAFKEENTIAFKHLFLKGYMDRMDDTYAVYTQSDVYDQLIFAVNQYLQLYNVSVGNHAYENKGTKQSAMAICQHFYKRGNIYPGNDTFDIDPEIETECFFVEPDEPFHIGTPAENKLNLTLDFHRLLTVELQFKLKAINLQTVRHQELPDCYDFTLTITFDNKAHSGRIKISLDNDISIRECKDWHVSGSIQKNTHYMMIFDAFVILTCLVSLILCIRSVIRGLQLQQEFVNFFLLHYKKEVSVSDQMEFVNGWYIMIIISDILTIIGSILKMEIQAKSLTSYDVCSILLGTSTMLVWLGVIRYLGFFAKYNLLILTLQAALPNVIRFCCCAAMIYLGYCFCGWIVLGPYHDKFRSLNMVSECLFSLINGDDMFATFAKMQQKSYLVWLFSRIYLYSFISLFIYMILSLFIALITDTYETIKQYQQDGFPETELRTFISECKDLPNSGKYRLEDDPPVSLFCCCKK
# [16] = biological target: Ion channel NompC (Danio rerio, UniProt Q7T1G6); assay: Dose response cell-based high-throughput screening assay for agonists of the transient receptor potential channel N1 (TRPN1). [Related pubchem assays (depositor defined):AID1424, AID1448]; assay type: functional
# [17] = biological target: Intestinal-type alkaline phosphatase (Mus musculus, UniProt P24822); assay: PubChem AID 488785; assay type: functional
# [18] = biological target: Intestinal-type alkaline phosphatase (Homo sapiens, UniProt P09923); assay: inhibition of human intestinal alkaline phosphatase – biochemical, dose response (AID 488876); assay type: functional
# [19] = biological target: T6, Alkaline phosphatase, tissue-nonspecific isozyme (Homo sapiens, UniProt P05186); assay: TNAP enzyme inhibition by screening hits, dose response, selectivity assay for mouse IAP inhibitor project, biochemical, human TNAP, uHTS hits (AID 488906); assay type: functional
# T6 sequence (P05186 whole entry): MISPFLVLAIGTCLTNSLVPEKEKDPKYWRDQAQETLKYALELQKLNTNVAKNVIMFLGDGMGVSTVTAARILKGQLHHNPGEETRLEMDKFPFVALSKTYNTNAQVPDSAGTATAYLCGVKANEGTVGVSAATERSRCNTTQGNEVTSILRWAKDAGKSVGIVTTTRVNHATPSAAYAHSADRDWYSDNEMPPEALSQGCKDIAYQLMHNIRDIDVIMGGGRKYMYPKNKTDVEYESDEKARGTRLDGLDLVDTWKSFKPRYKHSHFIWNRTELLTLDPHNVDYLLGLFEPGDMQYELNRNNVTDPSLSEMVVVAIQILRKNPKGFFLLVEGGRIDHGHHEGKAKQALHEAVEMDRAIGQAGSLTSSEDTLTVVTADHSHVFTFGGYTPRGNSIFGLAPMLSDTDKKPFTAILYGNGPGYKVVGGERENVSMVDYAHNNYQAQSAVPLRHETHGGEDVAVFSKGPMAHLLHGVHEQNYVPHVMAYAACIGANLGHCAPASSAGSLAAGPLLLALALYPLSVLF
# [20] = biological target: Dual specificity protein phosphatase 6 (Rattus norvegicus, UniProt Q64346); assay: inhibition of rat DUSP6 enzyme activity – biochemical, in vitro, primary screen (AID 425)
# [21] = biological target: T7, Dual specificity protein phosphatase 3 (Homo sapiens, UniProt P51452); assay: VHR1 phosphatase inhibitors, primary screen, biochemical, absorbance, uHTS (AID 1654)
# T7 sequence (P51452 whole entry): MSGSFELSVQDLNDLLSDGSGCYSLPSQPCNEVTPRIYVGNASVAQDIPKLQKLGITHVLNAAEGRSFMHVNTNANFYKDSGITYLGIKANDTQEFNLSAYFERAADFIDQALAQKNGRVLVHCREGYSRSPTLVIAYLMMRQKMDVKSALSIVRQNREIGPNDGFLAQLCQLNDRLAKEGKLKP
# [22] = biological target: T7, Dual specificity protein phosphatase 3; assay: VHR1 phosphatase inhibitors, biochemical (AID 1878)
# [23] = biological target: T8, Kappa-type opioid receptor (Homo sapiens, UniProt P41145); assay: SAR analysis of small molecule agonists of the kappa opioid receptor via a luminescent beta-arrestin assay - Set 3. [Related pubchem assays (depositor defined):AID1777, AID1785, AID1786, AID1966, AID2133, AID2136, AID2284, AID2500]; assay type: functional
# T8 sequence (P41145 whole entry): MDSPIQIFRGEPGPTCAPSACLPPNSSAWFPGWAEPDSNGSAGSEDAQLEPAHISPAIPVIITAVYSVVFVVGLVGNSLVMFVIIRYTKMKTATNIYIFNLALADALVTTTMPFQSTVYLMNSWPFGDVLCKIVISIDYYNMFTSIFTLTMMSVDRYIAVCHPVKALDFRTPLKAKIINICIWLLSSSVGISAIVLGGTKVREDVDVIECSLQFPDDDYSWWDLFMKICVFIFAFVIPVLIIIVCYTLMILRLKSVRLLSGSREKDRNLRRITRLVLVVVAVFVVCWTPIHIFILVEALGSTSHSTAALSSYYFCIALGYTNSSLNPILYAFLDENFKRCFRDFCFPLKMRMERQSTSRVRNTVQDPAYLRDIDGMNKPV
# [24] = biological target: Mu-type opioid receptor (Homo sapiens, UniProt P35372); assay: SAR Analysis of Agonists of the MOR Receptor using an Image-Based Assay - Set 3. [Related pubchem assays (depositor defined):AID1777, AID1785, AID1786, AID1966, AID2133, AID2136, AID2284, AID2285, AID2352]; assay type: functional
# [25] = biological target: Delta-type opioid receptor (Homo sapiens, UniProt P41143); assay: SAR Analysis of Agonists of the DOR Receptor using an Image-Based Assay - Set 3. [Related pubchem assays (depositor defined):AID1777, AID1786]; assay type: functional
# [26] = biological target: T8, Kappa-type opioid receptor; assay: kappa opioid receptor activation by imaging – image-based, set 3, SAR follow-up (AID 488833); assay type: functional
# [27] = system: DLD-1; assay: DLD-1 cell viability reduction – luminescence, round 1, cytotoxicity control for KLF5 inhibitor project, late-stage follow-up (AID 485338); assay type: functional, cell-based; settings: Homo sapiens
# [28] = Luminescence-based counterscreen assay for KLF5 inhibitors: dose response cell-based high throughput screening assay to identify cytotoxic compounds using the IEC-6 intestinal epithelial cell line. [Related pubchem assays: 1700 (Primary screen.), 1834 (Confirmation screen.), 1858 (Summary AID.), 1905 (Counterscreen.)]; assay type: functional
# [29] = luciferase reporter signal suppression in cells – H4 neuroglioma cells, luminescence, dose response (AID 1990); assay type: functional, cell-based
# [30] = system: Vero; assay: mammalian cell viability reduction – secondary assay, cytotoxicity control for West Nile virus antiviral project, dose response (AID 1650); assay type: functional; settings: Chlorocebus sabaeus
# [31] = alpha-synuclein stem-loop luciferase translation blockers – H4 neuroglioma cells, luminescence, confirmation (AID 1988); assay type: functional, cell-based
# [32] = system: Vero; assay: cells; assay type: functional, cell-based; settings: Chlorocebus sabaeus
# [33] = system: DLD-1; assay: KLF5 protein lowering by immunoblot – western blot, chemiluminescence, DLD-1 cells, titration, orthogonal assay for KLF5 inhibitor project, late-stage follow-up (AID 485336); assay type: functional, cell-based; settings: Homo sapiens
# [34] = system: Vero; assay: cells; assay type: functional; settings: Chlorocebus sabaeus
# [35] = Luminescence Cell-Based Dose Response HTS to Identify Inhibitors of 5'UTR Stem-Loop Driven Prion Protein mRNA Translation in H4 Neuroglioblastoma Cells. [Related pubchem assays: 1827 (Project Summary), 1813 (Primary HTS)]; assay type: functional
smiles,measurement,setting,value
COc1ccc(-c2cc(N)n(S(=O)(=O)c3ccc(Cl)cc3)n2)cc1OC,IC50,[1],> 100 µM (not active)
same,IC50,[2],> 20 µM (inactive)
same,IC50,[3],> 20 µM (inactive)
same,IC50,[4],> 20 µM (inactive)
same,IC50,[5],> 100 µM (not active)
same,IC50,[6],> 100 µM (not active)
same,IC50,[7],> 20 µM (inactive)
CC(=O)N(C)c1ccc(NC(=O)/C=C/c2ccccc2Cl)cc1,AC50,[8],2.06 µM (active)
same,AC50,[9],> 350 µM (inactive)
CCOc1ccc(/C=C2/SC(=S)N(CCC(=O)Nc3ccc(C(=O)O)cc3)C2=O)cc1,IC50,[10],5.5 µM (active)
same,EC50,[11],> 80 µM (inactive)
same,IC50,[12],> 50 µM (inactive)
same,IC50,[13],16.8 µM (active)
same,IC50,[14],23.6 µM (active)
CCOC(=O)Cn1c(=O)oc2cc(S(=O)(=O)Nc3ccc(F)cc3)ccc21,EC50,[15],> 29.9 µM (not active)
same,EC50,[16],> 29.9 µM (inactive)
S=C(NCCC(c1ccccc1)c1ccccc1)Nc1ccc(Cl)cc1,IC50,[17],9.61 µM (active)
same,IC50,[18],> 100 µM (inactive)
same,IC50,[19],> 100 µM (inactive)
Cc1ccc(NC(=O)Cn2c(O)c(N=NC(=O)c3cc([N+](=O)[O-])ccc3O)c3ccccc32)cc1,IC50,[20],31 µM (active)
same,IC50,[21],12.9 µM (active)
same,IC50,[22],6.94 µM (active)
FC(F)(F)c1ccc(CSc2nnc(-c3ccccn3)n2Cc2ccco2)cc1,EC50,[23],2.77 µM (active)
same,EC50,[24],> 32 µM (inactive)
same,EC50,[25],> 64 µM (inactive)
same,EC50,[26],1.22 µM (active)
C[C@@H]1O[C@@H](O[C@H]2C[C@@H](O)[C@]3(CO)[C@H]4[C@H](O)C[C@]5(C)[C@@H](C6=CC(=O)OC6)CC[C@]5(O)[C@@H]4CC[C@]3(O)C2)[C@H](O)[C@H](O)[C@H]1O [OUABAIN],IC50,[27],0.0464 µM (active)
same,IC50,[28],> 39.8 µM (not active)
same,EC50,[29],< 0.1 µM (active)
same,CC50,[30],0.16 µM (active)
same,EC50,[31],< 0.1 µM (active)
same,IC50,[32],< 0.05 µM (active)
same,IC50,[33],0.0297 µM (active)
same,CC50,[34],0.13 µM (active)
same,EC50,[35],< 0.1 µM (active)
